Where a name gives a salt, the structure may show the parent alone.
System: isolated rat aorta
Assay: Calcium inhibitory properties: contractile response to potassium-induced depolarization on isolated rat aorta
Parameters: species or system isolated organ, male Wistar rats
Settings: for activity at 1 µM / activity at 0.1 µM / activity at 0.01 µM / activity at 0.001 µM: Rattus norvegicus, 1 h, read-out: % of the maximum contractional effect; for % of the maximum contractional effect: 60 min
From the text: It is well established that the depolarization of a smooth muscle membrane by potassium renders the latter permeable to extracellular calcium and induces muscle contraction. Consequently, the measurement of the inhibition of the contractile response to depolarization by potassium, or the measurement of a relaxation of the tonic contraction on potassium depolarization, can represent an evaluation of the power of a compound as an inhibitor of the membrane permeability to Ca^++ ions. The technique used was as follows: The aorta was removed from male Wistar rats weighing approximately 300 g, and cut into strips approximately 40 mm long and 3 mm wide. These fragments were placed in a 25-ml isolated organ trough containing a modified Krebs-bicarbonate solution (112 mM NaCl; 5 mM KCl; 25 mM NaHCO3; 1 mM KH2 PO4; 1.2 mM MgSO4; 2.5 mM CaCl2; 11.5 mM glucose, distilled water to 1000 ml) through which a stream of 5-7% carbon dioxide in oxygen was passed, and maintained at 37° C. The preparation was connected to a force microsensor and the contractile response recorded after amplification on a recorder. A tension of 2 g was applied to the preparation. This tension was maintained for 60 minutes in the modified Krebs-bicarbonate solution, and contractions were then induced by replacing the Krebs-bicarbonate solution by a potassium-Krebs solution (17 mM NaCl; 100 mM KCl; 25 mM NaHCO3; 1 mM KH2 PO4; 1.2 mM MgSO4; 2.5 mM CaCl2; 11.5 mM glucose; distilled water to 1000 ml). When the contractile response of the preparation had become reproducible, a given amount of a compound of the invention was introduced into the bath. Sixty minutes later, a new spasm was induced by potassium depolarization. The results obtained on the aorta used in the experiment were then expressed as a percentage of the maximum contractional effect before incubation with the test substance. By way of examples, the results which follow were obtained, the compounds of formula (1) being in the form of the base, hydrochloride or oxalate.

[1] = head printed "10^-" (exponent missing; first of three columns before 10^-6 M)

In the case of `COc1ccc(CCN(C)CCCOc2ccc(S(=O)(=O)c3ccc4ccccc4c3)cc2)cc1OC` [Ex. 103, 2-[4-{3-[N-methyl-N-(3,4-dimethoxy-β-phenethyl)amino]propyloxy}benzenesulphonyl]-naphthalene acid oxalate], the activity at 1 µM (10^-6 M) is reported as 16.8%, the activity at 0.1 µM (10^-7 M) is reported as 62.8% and the activity at 0.01 µM (10^-8 M) is reported as 83.3%.

With `CCCCN(CCCC)CCCOc1ccc(S(=O)(=O)c2ncsc2-c2ccccc2)cc1` [Ex. 124, 4-{4-[3-(di-n-butylamino)propyloxy]benzenesulphonyl}-5-phenyl-thiazole acid oxalate] the activity at 1 µM (10^-6 M) was 13.7%, the activity at 0.1 µM (10^-7 M) was 66.7% and the activity at 0.01 µM (10^-8 M) was 90.6%.

`CCCCCN(CCCCC)CCCOc1ccc(S(=O)(=O)c2c(C(C)C)cn3ccccc23)cc1` [Ex. 37, 2-Isopropyl-1-{4-[3-(di-n-pentylamino)propyloxy]-benzenesulphonyl}indolizine hydrochloride] gave an activity at 0.1 µM (10^-7 M) of 48.7% and an activity at 0.01 µM (10^-8 M) of 77.8%.

`CC(C)c1ccccc1S(=O)(=O)c1ccc(OCCCNC(C)(C)C)cc1` [Ex. 118, 2-isopropyl-1-[4-{3-(tert-butylamino)propyloxy}benzenesulphonyl]benzene acid oxalate] was tested, and the activity at 1 µM (10^-6 M) was 2.7%, the activity at 0.1 µM (10^-7 M) was 52.2% and the activity at 0.01 µM (10^-8 M) was 92.3%.

In the case of `COc1ccc(CCN(C)CCCOc2ccc(Sc3ccncc3)cc2)cc1OC` [Ex. 57, 4-[4-{3-[N-methyl-N-(3,4-dimethoxy-β-phenethyl)amino]propyloxy}phenylthio]pyridine oxalate], the activity at 1 µM (10^-6 M) is reported as 59%, the activity at 0.1 µM (10^-7 M) is reported as 85% and the “% of the maximum contractional effect” value [1] is reported as 3.1%.

`CCCCN(CCCC)CCCOc1ccc(S(=O)(=O)c2c(CC)cc3ccccn23)cc1` [Ex. 123, 2-ethyl-3-{4-[3-(di-n-butylamino)propyloxy]benzenesulphonyl}indolizine acid oxalate] showed an activity at 1 µM (10^-6 M) of 5.8%, an activity at 0.1 µM (10^-7 M) of 16.8% and an activity at 0.01 µM (10^-8 M) of 54.6%. It also gave an activity at 0.001 µM (10^-9 M) of 75.3%.

For `CC(C)(C)NCCCOc1ccc(S(=O)(=O)c2ccccn2)cc1` [Ex. 62, 2-{4-[3-(tertiobutylamino)propyloxy]benzenesulphonyl}pyridine oxalate], the activity at 1 µM (10^-6 M) was 87.1% and the “% of the maximum contractional effect” value [1] was 70.6%.

`CCCCN(CCCC)CCCOc1ccc(S(=O)(=O)c2c(C(C)(C)C)cn3ccccc23)cc1` [Ex. 16, 2-tert-Butyl-1-{4-[3-(di-n-butylamino)propyloxy]-benzenesulphonyl}indolizine] gave an activity at 0.1 µM (10^-7 M) of 35.8% and an activity at 0.01 µM (10^-8 M) of 78.7%.

`CCc1cn2ccccc2c1S(=O)(=O)c1ccc(OCCCNC(C)(C)C)cc1` [Ex. 3, 2-ethyl-1-{4-[3-(tert-butylamino)propyloxy]benzenesulphonyl}indolizine hydrochloride] showed an activity at 1 µM (10^-6 M) of 30.7%.

Work on `CCN(CC)CCCOc1ccc(S(=O)(=O)c2c(C)cn3ccccc23)cc1` [Ex. 4, 2-Methyl-1-{4-[3-(diethylamino)propyloxy]benzenesulphonyl}indolizine oxalate] yielded an activity at 1 µM (10^-6 M) of 77.2%.

For `COc1ccc(CCN(C)CCCOc2ccc(S(=O)(=O)c3c(C(C)C)oc4ccccc34)cc2)cc1OC.O=C(O)C(=O)O` [Ex. 90, 2-Isopropyl-3-[4-{3-[N-methyl-N-(3,4-dimethoxy-β-phenethyl)amino]propyloxy}benzenesulphonyl]benzofuran acid oxalate], the “% of the maximum contractional effect” value (10^-6 M, 1 µM) was 0%, the “% of the maximum contractional effect” value (10^-7 M, 0.1 µM) was 21.3% and the “% of the maximum contractional effect” value (10^-8 M, 0.01 µM) was 56.9%.

With `COc1ccc(CCN(C)CCCOc2ccc(Sc3cc4ccccc4nn3)cc2)cc1OC` [Ex. 82, 3-[4-{3-[N-methyl-N-(3,4-dimethoxy-β-phenethyl)amio]propyloxy}phenylthio]cinnoline oxalate] the activity at 1 µM (10^-6 M) was 55%, the activity at 0.1 µM (10^-7 M) was 90.2% and the “% of the maximum contractional effect” value [1] was 6.7%.

In the case of `COc1ccc(CN(C)CCOc2ccc(S(=O)(=O)c3c(C(C)C)oc4ccccc34)cc2)cc1OC` [Ex. 89, 2-Isopropyl-3-[4-{2-[N-methyl-N-(3,4-dimethoxy-benzyl)amino]ethyloxy}benzenesulphonylbenzofuran hemioxalate], the activity at 0.1 µM (10^-7 M) is reported as 4.7%, the activity at 0.01 µM (10^-8 M) is reported as 53.3% and the activity at 0.001 µM (10^-9 M) is reported as 83.9%.

Molecule `COc1ccc(CCN(C)CCCOc2ccc(S(=O)(=O)c3c(C(C)C)[nH]c4ccccc34)cc2)cc1OC` [Ex. 105, 2-isopropyl-3-[4-{3-[N-methyl-N-(3,4-dimethoxy-β-phenethyl)amino]propyloxy}benzenesulphonyl]indole hemioxalate] has an activity at 0.1 µM (10^-7 M) of 11.9%, an activity at 0.01 µM (10^-8 M) of 62.9% and an activity at 0.001 µM (10^-9 M) of 83.6%.

For `COc1ccc(CCN(C)CCCCOc2ccc(S(=O)(=O)c3c(C(C)C)oc4ccccc34)cc2)cc1OC` [Ex. 93, 2-Isopropyl-3-[4-{4-[N-methyl-N-(3,4-dimethoxy-β-phenethyl)amino]butyloxy}benzenesulphonyl]benzofuran acid oxalate], the activity at 0.1 µM (10^-7 M) was 33.6% and the activity at 0.01 µM (10^-8 M) was 53.1%.

For `COc1ccc(CCN(C)CCCOc2ccc(S(=O)(=O)c3cn[nH]c3C(C)C)cc2)cc1OC` [Ex. 100, 4-[4-{3-[N-methyl-N-(3,4-dimethoxy-β-phenethyl)amino]propyloxy}benzenesulphonyl]-5-isopropyl-pyrazole acid oxalate], the activity at 1 µM (10^-6 M) was 62.5%, the activity at 0.1 µM (10^-7 M) was 87.6% and the “% of the maximum contractional effect” value [1] was 15.1%.

For `COc1ccc(CCN(C)CCCOc2ccc(S(=O)(=O)c3ccncc3)cc2)cc1OC` [Ex. 61, 4-[4-{3-[N-methyl-N-(3,4-dimethoxy-βphenethyl)amino]propyloxy}benzenesulphonyl]pyridine oxalate], the activity at 1 µM (10^-6 M) was 70.7%, the activity at 0.1 µM (10^-7 M) was 88% and the “% of the maximum contractional effect” value [1] was 14%.

`CC(C)c1cn2ccccc2c1S(=O)(=O)c1ccc(OCCCN2CCC(c3ccccc3)CC2)cc1` [Ex. 35, 2-Isopropyl-1-{4-[3-(4-phenylpiperidino)propyloxy]-benzenesulphonyl}indolizine] showed an activity at 1 µM (10^-6 M) of 8.3%, an activity at 0.1 µM (10^-7 M) of 25% and an activity at 0.01 µM (10^-8 M) of 65.6%.

`CCCCN(CCCC)CCCOc1ccc([S+]([O-])c2c(C(C)C)cn3ccccc23)cc1` (racemic) [Ex. 54, 4-[3-(di-n-butylamino)propyl]oxyphenyl(2-isopropyl-1-indolizinyl)sulphoxide oxalate] was tested, and the activity at 0.1 µM (10^-7 M) was 74.3% and the activity at 0.01 µM (10^-8 M) was 82.4%.

With `CCCCN(CCCC)CCCOc1ccc(S(=O)(=O)c2c(C(C)C)n(C)c3ccccc23)cc1` [Ex. 110, 1-Methyl-2-isopropyl-3-{4-[3-(di-n-butylamino)propyloxy]benzenesulphonyl}indole acid oxalate] the activity at 1 µM (10^-6 M) was 0%, the activity at 0.1 µM (10^-7 M) was 15.1% and the activity at 0.01 µM (10^-8 M) was 71%. It also gave an activity at 0.001 µM (10^-9 M) of 84.6%.

In the case of `CCCCCCCCN(CCCCCCCC)CCCOc1ccc(S(=O)(=O)c2c(C(C)C)cn3ccccc23)cc1` [Ex. 36, 2-Isopropyl-1-{4-[3-(di-n-octylamino)propyloxy]-benzenesulphonyl}indolizine], the activity at 1 µM (10^-6 M) is reported as 83.3% and the activity at 0.1 µM (10^-7 M) is reported as 93.7%.

`CCCCN(CCCC)CCCCCOc1ccc(S(=O)(=O)c2c(CC)cn3ccccc23)cc1` [Ex. 40, 2-Ethyl-1-{4-[5-(di-n-butylamino)pentyloxy]benzenesulphonyl}indolizine] was tested, and the activity at 0.1 µM (10^-7 M) was 49.7% and the activity at 0.01 µM (10^-8 M) was 87.9%.

In the case of `COc1cc(CCNCCCOc2ccc(S(=O)(=O)c3c(C(C)C)cn4ccccc34)cc2)cc(C)c1OC.O=C(O)C(=O)O` [Ex. 139, 2-isopropyl-1-[4-{3-[N-(3,4-dimethoxy-5-methyl-β-phenethyl)amino]propyloxy}benzenesulphonyl]-indolizine acid oxalate], the “% of the maximum contractional effect” value (10^-8 M, 0.01 µM) is reported as 49% and the “% of the maximum contractional effect” value (10^-9 M, 0.001 µM) is reported as 89%.

From patent US5147878A, “Aminoalkoxyphenyl derivatives, process of preparation and compositions containing the same” (Sanofi, priority 1986, dated 1992)
